From publication PMC5057115, “Cathelicidins in the Tasmanian devil (Sarcophilus harrisii)” (Scientific Reports, 2016)
Where no end group is shown, it is not given here.

What was measured:
S. aureus = type: cell-based, Staphylococcus aureus; conditions: broth microdilution (CLSI), 64 to 0.125 μg/mL, 24 h at 35 °C; human clinical isolate
Protocol: (§1) Tissue expression of devil cathelicidin prepropeptides was determined by real-time PCR on a range of secretory, immune, reproductive, gastrointestinal and respiratory tissues, as well as BLAST searches of the milk transcriptome. Opportunistic tissue samples for real-time PCR were collected from Taronga Zoo (Sydney) from devils which were subject to euthanasia due to old age and advanced disease. The mature peptides of all six devil cathelicidins were synthesised by ChinaPeptides Co. Ltd. and their antimicrobial activity against bacterial and fungal pathogens determined by broth microdilution susceptibility assay according to clinical laboratory standards institute guidelines. Antimicrobial activity was expressed as minimum inhibitory concentration (MIC). Cytotoxicity was assessed in the human cell line A549 and haemolytic activity determined against human blood. Statistical significance of peptide effect on cell survival in comparison to the untreated control was calculated using a one sample t-test. Pouch microbiome analysis was performed on swabs from the pouch of lactating and non-lactating devils to detect changes in microbe populations. Pouch swab collection was carried out in accordance with the Save the Tasmanian Devil Program and was approved by the Animal Ethics Committee of the University of Sydney (permit number 681). […]
(§2) base (YNB) for fungi, from a concentration of 64μg/mL to 0.125μg/mL in a final volume of 100 μL .
Two antibiotics, ampicillin and tetracycline, were included as a positive control for bacteria, and the antifungal drug fluconazole for fungi. A well containing cells and media only was used as a “no drug” control to ensure that cultures grew normally. […] Colonies were resuspended in saline and the OD530 measured with a McFarland reader. […] Assays Antimicrobial activity was expressed as minimum inhibitory concentration (MIC), which was defined as the lowest concentration of cathelicidin preventing visible growth, relative to the negative control. […]
(§3) DMEM and positive control of dimethylsulfoxide (DMSO) (1%) were also included. Following incubation for a further 24 hours, cell viability was determined using alamar blue (Invitrogen) which was added to each well. The plates were incubated for 24 hours, then the absorption measured at 570nm and 620nm using the Victor 3 multilabel plate reader (PerkinElmer). […] To x i city of cathelicidins was calculated according to Invitrogen recommendations and expressed as percentage cell survival compared to the untreated growth control. […]
(§4) Haemolytic activity was assessed using 10mL of human blood collected into potassium -ED T A […]

S. pyogenes ATCC 19615 = type: cell-based; conditions: broth microdilution (CLSI), 64 to 0.125 μg/mL, 24 h at 35 °C with 5% CO2; ATCC strain
Protocol: as §1, §2
(§5) Two antibiotics, ampicillin and tetracycline, were included as a positive control for bacteria, and the antifungal drug fluconazole for fungi. A well containing cells and media only was used as a “no drug” control to ensure that cultures grew normally. Bacteria were subcultured on Mueller Hinton agar (MHA) or Sheep blood agar (BA) for 24 hours at 35 °C for Staphylococcus spp., Pseudomonas spp., Enterococcus spp. and E.coli, with 5% CO2 for Streptococcus spp., K.pneumoniae, P.multocida, L.monocytogenes and N.asteroides. Similarly, fungi were subcultured on Sabouraud agar (SAB) at 35 °C for 24 hours prior to the test. Colonies were resuspended in saline and the OD530 measured with a McFarland reader. If necessary the suspension was diluted to 0.45-0.55 McFarland units with saline. Following a 1:150 dilution for bacteria and twostep dilution for fungi (1:50, 1:20), 100 μL of microorganisms (1x106 – 5 x10^5 cells/mL) were pipetted into wells 2-12, the first well acting as a negative control. Colony counts were performed using a 1:1000 dilution for bacteria and 1:10 for fungi spread onto MHA/BA or SAB plates respectively. The 96 well microdilution and agar plates were incubated for 24 hours at 35 °C (Escherichia coli, Staphylococcus spp., Enterococcus spp. and Pseudomonas spp.), with 5% CO2 (Streptococcus spp. Pasteurella multocida, Klebsiella pneumoniae, Listeria monocytogenes a nd Nocardia asteroids) for bacteria, and 35 °C for 48 hours (Candida spp .) or 72 hours (Cryptococcus spp.) for fungi. Assays Antimicrobial activity was expressed as minimum inhibitory concentration (MIC), which was defined as the lowest concentration of cathelicidin preventing visible growth, relative to the negative control. […]
(§6) DMEM and positive control of dimethylsulfoxide (DMSO) (1%) were also included. Following incubation for a further 24 hours, cell viability was determined using alamar blue (Invitrogen) which was added to each well. The plates were incubated for 24 hours, then the absorption measured at 570nm and 620nm using the Victor 3 multilabel plate reader (PerkinElmer). The assay was performed on two separate occasions. To x i city of cathelicidins was calculated according to Invitrogen recommendations and expressed as percentage cell survival compared to the untreated growth control. A significant difference between cathelicidin treated and control cell survival was tested using a o ne sample t-test (p<0.05).
as §4
(§7) vacutainers (BD). […]

S. agalactiae ATCC 12386 = type: cell-based; conditions: broth microdilution (CLSI), 64 to 0.125 μg/mL, 24 h at 35 °C with 5% CO2; ATCC strain
Protocol: as §1, §2, §5, §6, §4, §7

E. coli = type: cell-based, Escherichia coli; conditions: broth microdilution (CLSI), 64 to 0.125 μg/mL, 24 h at 35 °C; human clinical isolate
Protocol: as §1, with “t-test.” for “t-test. Pouch microbiome analysis was performed on swabs from the pouch of lactating and non-lactating devils to detect changes in microbe populations. Pouch swab collection was carried out in accordance with the Save the Tasmanian Devil Program and was approved by the Animal Ethics Committee of the University of Sydney (permit number 681).”
(§8) Two antibiotics, ampicillin and tetracycline, were included as a positive control for bacteria, and the antifungal drug fluconazole for fungi. […] Colonies were resuspended in saline and the OD530 measured with a McFarland reader. […] Assays Antimicrobial activity was expressed as minimum inhibitory concentration (MIC), which was defined as the lowest concentration of cathelicidin preventing visible growth, relative to the negative control. […]
as §3, §4

E. coli ATCC 25922 = test: microbe, parasite or virus in culture; type: cell-based, Escherichia coli; conditions: ATCC 25922, 24 h
Protocol: as §1, §2
(§9) Two antibiotics, ampicillin and tetracycline, were included as a positive control for bacteria, and the antifungal drug fluconazole for fungi. A well containing cells and media only was used as a “no drug” control to ensure that cultures grew normally. Bacteria were subcultured on Mueller Hinton agar (MHA) or Sheep blood agar (BA) for 24 hours at 35 °C for Staphylococcus spp., Pseudomonas spp., Enterococcus spp. and E.coli, with 5% CO2 for Streptococcus spp., K.pneumoniae, P.multocida, L.monocytogenes and N.asteroides. Similarly, fungi were subcultured on Sabouraud agar (SAB) at 35 °C for 24 hours prior to the test. Colonies were resuspended in saline and the OD530 measured with a McFarland reader. If necessary the suspension was diluted to 0.45-0.55 McFarland units with saline. […] Assays Antimicrobial activity was expressed as minimum inhibitory concentration (MIC), which was defined as the lowest concentration of cathelicidin preventing visible growth, relative to the negative control. […]
(§10) 570nm and 620nm using the Victor 3 multilabel plate reader (PerkinElmer). […] To x i city of cathelicidins was calculated according to Invitrogen recommendations and expressed as percentage cell survival compared to the untreated growth control. […]
(§11) Haemolytic activity was assessed using 10mL of human blood collected into potassium -ED T A vacutainers (BD). […]

C. krusei ATCC 6258 = type: cell-based, Candida krusei; conditions: broth microdilution (CLSI), YNB, 64 to 0.125 μg/mL, 48 hours at 35 °C; ATCC strain
Protocol: as §1, with “t-test.” for “t-test. Pouch microbiome analysis was performed on swabs from the pouch of lactating and non-lactating devils to detect changes in microbe populations. Pouch swab collection was carried out in accordance with the Save the Tasmanian Devil Program and was approved by the Animal Ethics Committee of the University of Sydney (permit number 681).”
as §8, §3, §4

C. gattii = type: cell-based, Cryptococcus gattii; conditions: broth microdilution (CLSI), YNB, 64 to 0.125 μg/mL, 72 hours at 35 °C; human clinical isolate
Protocol: as §1, with “t-test.” for “t-test. Pouch microbiome analysis was performed on swabs from the pouch of lactating and non-lactating devils to detect changes in microbe populations. Pouch swab collection was carried out in accordance with the Save the Tasmanian Devil Program and was approved by the Animal Ethics Committee of the University of Sydney (permit number 681).”
as §8, §3, §4

K. pneumoniae* = type: cell-based, Klebsiella pneumoniae; conditions: broth microdilution (CLSI), 64 to 0.125 μg/mL, 24 h at 35 °C with 5% CO2; animal isolate
Protocol: as §1, with “t-test.” for “t-test. Pouch microbiome analysis was performed on swabs from the pouch of lactating and non-lactating devils to detect changes in microbe populations. Pouch swab collection was carried out in accordance with the Save the Tasmanian Devil Program and was approved by the Animal Ethics Committee of the University of Sydney (permit number 681).”
as §8, §3, §4

P. aeruginosa ATCC 27853 = test: microbe, parasite or virus in culture; type: cell-based, Pseudomonas aeruginosa; conditions: ATCC 27853, 24 h
Protocol: as §1, §2, §9, §10, §11

E. faecalis ATCC 29212 = test: microbe, parasite or virus in culture; type: cell-based, Enterococcus faecalis; conditions: ATCC 29212, 24 h
Protocol: as §1, §2, §9, §10, §11

E. faecalis = type: cell-based, Enterococcus faecalis; conditions: broth microdilution (CLSI), 64 to 0.125 μg/mL, 24 h at 35 °C; human clinical isolate
Protocol: as §1, §2, §5, §6, §4, §7

[1] = test system: Vancomycin resistant E. faecalis (VREF); type: cell-based, Enterococcus faecalis; conditions: broth microdilution (CLSI), 64 to 0.125 μg/mL, 24 h at 35 °C, human clinical isolate
Protocol: as §1, §2, §5, §6, §4, §7

C. neoformans = type: cell-based, Cryptococcus neoformans; conditions: broth microdilution (CLSI), YNB, 64 to 0.125 μg/mL, 72 hours at 35 °C; human clinical isolate
Protocol: as §1, with “t-test.” for “t-test. Pouch microbiome analysis was performed on swabs from the pouch of lactating and non-lactating devils to detect changes in microbe populations. Pouch swab collection was carried out in accordance with the Save the Tasmanian Devil Program and was approved by the Animal Ethics Committee of the University of Sydney (permit number 681).”
as §8, §3, §4

P. multocida* = type: cell-based, Pasteurella multocida; conditions: broth microdilution (CLSI), 64 to 0.125 μg/mL, 24 h at 35 °C with 5% CO2; animal isolate
Protocol: as §1, with “t-test.” for “t-test. Pouch microbiome analysis was performed on swabs from the pouch of lactating and non-lactating devils to detect changes in microbe populations. Pouch swab collection was carried out in accordance with the Save the Tasmanian Devil Program and was approved by the Animal Ethics Committee of the University of Sydney (permit number 681).”
as §8, §3, §4

S. pneumoniae ATCC 49619 = test: microbe, parasite or virus in culture; type: cell-based; conditions: ATCC 49619, 24 h
Protocol: as §1, §2, §5
(§12) DMEM and positive control of dimethylsulfoxide (DMSO) (1%) were also included. […]
(§13) 570nm and 620nm using the Victor 3 multilabel plate reader (PerkinElmer). The assay was performed on two separate occasions. To x i city of cathelicidins was calculated according to Invitrogen recommendations and expressed as percentage cell survival compared to the untreated growth control. A significant difference between cathelicidin treated and control cell survival was tested using a o ne sample t-test (p<0.05).
(§14) Haemolytic activity was assessed using 10mL of human blood collected into potassium -ED T A vacutainers (BD). The blood was washed three times with 30mL of calcium and magnesium -free Dulbecco’s phosphate buffered saline (DPBS) and cells were collected by centrifugation at 2000 x g […]
(§15) for 10 minutes. […]

[2] = test system: C. parapsilosis ATCC 22019; test: microbe, parasite or virus in culture; type: cell-based; conditions: broth microdilution (CLSI), YNB, 64 to 0.125 μg/mL, 48 hours at 35 °C; ATCC strain
Protocol: as §1, §2, §5, §12, §13, §14, §15

Row | Sequence | MIC (S. aureus) [µg/mL] | MIC (S. pyogenes ATCC 19615) [µg/mL] | MIC (S. agalactiae ATCC 12386) [µg/mL] | MIC (E. coli) [µg/mL] | MIC (E. coli ATCC 25922) [µg/mL] | MIC (C. krusei ATCC 6258) [µg/mL] | MIC (C. gattii) [µg/mL] | MIC (K. pneumoniae*) [µg/mL] | MIC (P. aeruginosa ATCC 27853) [µg/mL] | MIC (E. faecalis ATCC 29212) [µg/mL] | MIC (E. faecalis) [µg/mL] | MIC [1] [µg/mL] | MIC (C. neoformans) [µg/mL] | MIC (P. multocida*) [µg/mL] | MIC (S. pneumoniae ATCC 49619) [µg/mL] | MIC [2] [µg/mL]
1 | KRIGLIRLIGKILRGLRRLG [Saha-CATH5] | 64 | 32 | 64 | 32 | 32 | 64 | 64 | >64 | >64 | >64 | >64 | 32 | 32 | >64 | 64 | >64
2 | KRIRFFERIRDRLRDLGNRIKNRIRDFFS [Saha-CATH6] | >64 | 64 | 64 | >64 | >64 | 64 | 64 | >64 | >64 | >64 | >64 | 64 | 64 | >64 | 64 | >64
3 | KRMGIFHLFWAGLRKLGNLIKNKIQQGIENFLG [Saha-CATH3] | >64 | >64 | >64 | >64 | >64 | >64 | >64 | >64 | >64 | >64 | >64 | >64 | 16 | >64 | >64 | >64
